Assays:
Assay type in all cases: in vivo
[1] = tested on: Rice (Oryza sativa); experiment: Test Example 3 paddy field treatment, crop phytotoxicity; conditions: active ingredient 1 kg per hectare, index 0-5
Procedure: (§1) A plastic pot of 130 cm^2 was filled with paddy soil, and soil puddling was carried out to adjust the submerged depth to 4 cm. Subsequently, seeds of Echinochloa crusgalli, Monochoria vaginalis, Ammannia multiflora and Scirpus juncoides were sowed, and rice (Oryza sative, variety: Koshihikari) of two-leaf period was transplanted by 2 rice plants of 1 stub per pot at a depth of 3 cm. On the 10th day after the transplantation, the wettable powder prepared in Formulation Example 1 was diluted with water such that the amount of the active ingredient became 1 kg per hectare, and then dropped to diffuse on the water surface. On the 21st day after the dropping, observation and evaluation were carried out according to the aforesaid criteria.
(§2) Herbicidal activity was evaluated based on the following criteria.
(§3) • 5: herbicidal effect of not less than 90%, or phytotoxicity of 90% or more • 4: herbicidal effect of not less than 70% and less than 90%, or phytotoxicity of 70% or more and less than 90% • 3: herbicidal effect of not less than 50% and less than 70%, or phytotoxicity of 50% or more and less than 70% • 2: herbicidal effect of not less than 30% and less than 50%, or phytotoxicity of 30% or more and less than 50% • 1: herbicidal effect of not less than 10% and less than 30%, or phytotoxicity of 10% or more and less than 30% • 0: herbicidal effect of not less than 0% and less than 10%, or phytotoxicity of 0% or more and less than 10%

[2] = tested on: Chenopodium album; experiment: Test Example 2 upland soil treatment; conditions: Table 5, upland soil treatment, index 0-5
Method in brief: (§4)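 Score 0–5 read at day 21 (5 = ≥90% effect or phytotoxicity, 0 = <10%). Wettable powder diluted in water to 1 kg a.i./ha, applied uniformly to upland soil one day after sowing; seeds covered with ~1 cm soil.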

[3] = tested on: Setaria viridis; experiment: Test Example 2 upland soil treatment; conditions: Table 5, upland soil treatment, index 0-5
Method in brief: as §4

[4] = tested on: Stellaria media; experiment: Test Example 2 upland soil treatment; conditions: Table 5, upland soil treatment, index 0-5
Method in brief: as §4

[5] = tested on: Digitaria adscendens; experiment: Test Example 2 upland soil treatment; conditions: Table 5, upland soil treatment, index 0-5
Method in brief: as §4

[6] = tested on: wheat (Triticum aestivum); experiment: Test Example 1 upland field foliage treatment, crop phytotoxicity; conditions: Table 4, upland field foliage treatment, index 0-5
Method in brief: (§5)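 Seeds sown in upland soil in pots and covered with about 1 cm soil; on day 14 after sowing, diluted wettable powder applied uniformly to leaves at 1 kg active ingredient per hectare. Weed control or crop phytotoxicity scored visually 21 days after application on a 0–5 scale (5 = ≥90%, 0 = <10%).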

[7] = tested on: soybean (Glycine max); experiment: as above; conditions: Table 4, upland field foliage treatment, index 0-5
Method in brief: as §5

[8] = tested on: Ammannia multiflora; experiment: Test Example 3 paddy field treatment; conditions: active ingredient 1 kg per hectare, index 0-5
Procedure: as §1, §2, §3

[9] = tested on: Echinochloa crusgalli; experiment: Test Example 3 paddy field treatment; conditions: active ingredient 1 kg per hectare, index 0-5
Procedure: as §1, §2, §3

[10] = tested on: Scirpus juncoides; experiment: Test Example 3 paddy field treatment; conditions: active ingredient 1 kg per hectare, index 0-5
Procedure: as §1, §2, §3

[11] = tested on: Monochoria vaginalis; experiment: Test Example 3 paddy field treatment; conditions: active ingredient 1 kg per hectare, index 0-5
Procedure: as §1, §2, §3

[12] = tested on: Chenopodium album; experiment: Test Example 1 upland field foliage treatment; conditions: Table 4, upland field foliage treatment, index 0-5
Method in brief: as §5

[13] = tested on: Setaria viridis; experiment: Test Example 1 upland field foliage treatment; conditions: Table 4, upland field foliage treatment, index 0-5
Method in brief: as §5

[14] = tested on: Stellaria media; experiment: Test Example 1 upland field foliage treatment; conditions: Table 4, upland field foliage treatment, index 0-5
Method in brief: as §5

[15] = tested on: Digitaria adscendens; experiment: Test Example 1 upland field foliage treatment; conditions: Table 4, upland field foliage treatment, index 0-5
Method in brief: as §5

[16] = tested on: wheat (Triticum aestivum); experiment: Test Example 2 upland soil treatment, crop phytotoxicity; conditions: Table 5, upland soil treatment, index 0-5
Method in brief: as §4

[17] = tested on: soybean (Glycine max); experiment: as above; conditions: Table 5, upland soil treatment, index 0-5
Method in brief: as §4

[18] = paddy field treatment, wettable powder, 21st day after the dropping
[19] = Table 6, paddy field treatment, 21st day after dropping

CNC(=O)C(Cn1cc(Cl)c(-c2ccccc2)n1)=NOC [Compound 14]
Herbicidal activity OS (phytotoxicity to rice) ([1]; paddy field treatment, transplanted rice Koshihikari, wettable powder, 21st day after the dropping): 1 (herbicidal effect of not less than 10% and less than 30%, or phytotoxicity of 10% or more and less than 30%) | Herbicidal activity CA: Chenopodium album [2]: 5 (herbicidal effect of not less than 90%, or phytotoxicity of 90% or more) | Herbicidal activity SV: Setaria viridis [3]: 5 (herbicidal effect of not less than 90%, or phytotoxicity of 90% or more) | Herbicidal activity SM: Stellaria media [4]: 5 (herbicidal effect of not less than 90%, or phytotoxicity of 90% or more) | Herbicidal activity DA: Digitaria adscendens [5]: 5 (herbicidal effect of not less than 90%, or phytotoxicity of 90% or more) | Herbicidal activity (phytotoxicity) TA: Wheat (Triticum aestivum) [6]: 0 (herbicidal effect of not less than 0% and less than 10%, or phytotoxicity of 0% or more and less than 10%) | Herbicidal activity (phytotoxicity) GM: Soybean (Glycine max) [7]: 0 (herbicidal effect of not less than 0% and less than 10%, or phytotoxicity of 0% or more and less than 10%) | Herbicidal activity AM [8, 18]: 5 (herbicidal effect of not less than 90%, or phytotoxicity of 90% or more) | Herbicidal activity EC [9, 18]: 5 (herbicidal effect of not less than 90%, or phytotoxicity of 90% or more) | Herbicidal activity SJ [10, 18]: 5 (herbicidal effect of not less than 90%, or phytotoxicity of 90% or more) | Herbicidal activity MV [11, 18]: 5 (herbicidal effect of not less than 90%, or phytotoxicity of 90% or more) | Herbicidal activity CA: Chenopodium album [12]: 5 (herbicidal effect of not less than 90%, or phytotoxicity of 90% or more) | Herbicidal activity SV: Setaria viridis [13]: 5 (herbicidal effect of not less than 90%, or phytotoxicity of 90% or more) | Herbicidal activity SM: Stellaria media [14]: 5 (herbicidal effect of not less than 90%, or phytotoxicity of 90% or more) | Herbicidal activity DA: Digitaria adscendens [15]: 5 (herbicidal effect of not less than 90%, or phytotoxicity of 90% or more) | Herbicidal activity (phytotoxicity) TA: Wheat (Triticum aestivum) [16]: 0 (herbicidal effect of not less than 0% and less than 10%, or phytotoxicity of 0% or more and less than 10%) | Herbicidal activity (phytotoxicity) GM: Soybean (Glycine max) [17]: 1 (herbicidal effect of not less than 10% and less than 30%, or phytotoxicity of 10% or more and less than 30%)

CNC(=O)C(Cn1cc(C)c(-c2cccc(F)c2F)n1)=NOC [Compound 55]
Herbicidal activity (phytotoxicity) OS ([1]; Table 6, paddy field treatment, transplanted rice, 21st day after dropping): 0 (herbicidal effect of not less than 0% and less than 10%, or phytotoxicity of 0% or more and less than 10%) | Herbicidal activity CA: Chenopodium album [2]: 5 (herbicidal effect of not less than 90%, or phytotoxicity of 90% or more) | Herbicidal activity SV: Setaria viridis [3]: 5 (herbicidal effect of not less than 90%, or phytotoxicity of 90% or more) | Herbicidal activity SM: Stellaria media [4]: 5 (herbicidal effect of not less than 90%, or phytotoxicity of 90% or more) | Herbicidal activity DA: Digitaria adscendens [5]: 5 (herbicidal effect of not less than 90%, or phytotoxicity of 90% or more) | Herbicidal activity AM [8, 19]: 5 (herbicidal effect of not less than 90%, or phytotoxicity of 90% or more) | Herbicidal activity EC [9, 19]: 5 (herbicidal effect of not less than 90%, or phytotoxicity of 90% or more) | Herbicidal activity SJ [10, 19]: 5 (herbicidal effect of not less than 90%, or phytotoxicity of 90% or more) | Herbicidal activity MV [11, 19]: 5 (herbicidal effect of not less than 90%, or phytotoxicity of 90% or more) | Herbicidal activity (phytotoxicity) TA: Wheat (Triticum aestivum) [16]: 0 (herbicidal effect of not less than 0% and less than 10%, or phytotoxicity of 0% or more and less than 10%) | Herbicidal activity (phytotoxicity) GM: Soybean (Glycine max) [17]: 0 (herbicidal effect of not less than 0% and less than 10%, or phytotoxicity of 0% or more and less than 10%)

CON=C(Cn1cc(C)c(-c2ccccc2)n1)C(=O)NN(C)C [Compound 124]
Herbicidal activity CA: Chenopodium album [2]: 5 (herbicidal effect of not less than 90%, or phytotoxicity of 90% or more) | Herbicidal activity SV: Setaria viridis [3]: 3 (herbicidal effect of not less than 50% and less than 70%, or phytotoxicity of 50% or more and less than 70%) | Herbicidal activity SM: Stellaria media [4]: 4 (herbicidal effect of not less than 70% and less than 90%, or phytotoxicity of 70% or more and less than 90%) | Herbicidal activity DA: Digitaria adscendens [5]: 3 (herbicidal effect of not less than 50% and less than 70%, or phytotoxicity of 50% or more and less than 70%) | Herbicidal activity (phytotoxicity) TA: Wheat (Triticum aestivum) [6]: 0 (herbicidal effect of not less than 0% and less than 10%, or phytotoxicity of 0% or more and less than 10%) | Herbicidal activity (phytotoxicity) GM: Soybean (Glycine max) [7]: 0 (herbicidal effect of not less than 0% and less than 10%, or phytotoxicity of 0% or more and less than 10%) | Herbicidal activity CA: Chenopodium album [12]: 4 (herbicidal effect of not less than 70% and less than 90%, or phytotoxicity of 70% or more and less than 90%) | Herbicidal activity SV: Setaria viridis [13]: 3 (herbicidal effect of not less than 50% and less than 70%, or phytotoxicity of 50% or more and less than 70%) | Herbicidal activity SM: Stellaria media [14]: 4 (herbicidal effect of not less than 70% and less than 90%, or phytotoxicity of 70% or more and less than 90%) | Herbicidal activity DA: Digitaria adscendens [15]: 3 (herbicidal effect of not less than 50% and less than 70%, or phytotoxicity of 50% or more and less than 70%) | Herbicidal activity (phytotoxicity) TA: Wheat (Triticum aestivum) [16]: 0 (herbicidal effect of not less than 0% and less than 10%, or phytotoxicity of 0% or more and less than 10%) | Herbicidal activity (phytotoxicity) GM: Soybean (Glycine max) [17]: 0 (herbicidal effect of not less than 0% and less than 10%, or phytotoxicity of 0% or more and less than 10%)

Source: US7192906B2, “Substituted pyrazole derivatives, production process thereof, and herbicide compositions containing the derivatives” (SDS Biotech K.K., priority 2001, dated 2007)
